Patent US6384049B1, “Cancer treatment” (The Procter & Gamble Company, priority 2000, dated 2002)

Tested on: HT29, a colon cancer tumor line
Experiment: HT29 colon cancer tumor in nude mouse, average tumor weight
Format: in vivo
Protocol: Imidazo [4,5-b]pyridine-2-carbamic acid, methyl ester was used to treat HT29, a colon cancer tumor line, in nude mouse. The average tumor weight is reported in mg. The control was the vehicle given twice a week. The imidazo [4,5-b]pyridine-2-carbamic acid, methyl ester was also given on this same schedule. Both compounds were administered by oral gavage.

COC(=O)Nc1nc2ncccc2[nH]1 [pyridinyl, imidazo [4,5-b]pyridine-2-carbamic acid, methyl ester] was tested, and the “Average Tumor Weight on Day 1” value (1000 mg/kg p.o. twice a week) was 75.4 mg, the “Average Tumor Weight on Day 5” value (1000 mg/kg p.o. twice a week) was 97.2 mg and the “Average Tumor Weight on Day 8” value (1000 mg/kg p.o. twice a week) was 138.2 mg. For the same molecule, the “Average Tumor Weight on Day 11” value (1000 mg/kg p.o. twice a week) was 172.1 mg, the “Average Tumor Weight on Day 15” value (1000 mg/kg p.o. twice a week) was 220.1 mg and the “Average Tumor Weight on Day 18” value (1000 mg/kg p.o. twice a week) was 281.6 mg. The “Average Tumor Weight on Day 23” value (1000 mg/kg p.o. twice a week) was 340.6 mg, the “Average Tumor Weight on Day 26” value (1000 mg/kg p.o. twice a week) was 407.6 mg and the “Average Tumor Weight on Day 30” value (1000 mg/kg p.o. twice a week) was 515.6 mg. For the same molecule, the “Average Tumor Weight on Day 33” value (1000 mg/kg p.o. twice a week, day 33) was 562 mg, the “Average Tumor Weight on Day 37” value (1000 mg/kg p.o. twice a week, day 37) was 828.3 mg and the “Average Tumor Weight on Day 40” value (1000 mg/kg p.o. twice a week, day 40) was 533.7 mg. The “Average Tumor Weight on Day 44” value (1000 mg/kg p.o. twice a week, day 44) was 714.4 mg, the “Average Tumor Weight on Day 47” value (1000 mg/kg p.o. twice a week, day 47) was 656.8 mg and the “Average Tumor Weight on Day 51” value (1000 mg/kg p.o. twice a week, day 51) was 763.6 mg. For the same molecule, the “Average Tumor Weight on Day 54” value (1000 mg/kg p.o. twice a week, day 54) was 793.3 mg, the “Average Tumor Weight on Day 58” value (1000 mg/kg p.o. twice a week, day 58) was 919 mg and the “Average Tumor Weight on Day 1” value (2500 mg/kg p.o. twice a week) was 76.2 mg. For the same molecule, the “Average Tumor Weight on Day 5” value (2500 mg/kg p.o. twice a week) was 62.6 mg, the “Average Tumor Weight on Day 8” value (2500 mg/kg p.o. twice a week) was 115.2 mg and the “Average Tumor Weight on Day 11” value (2500 mg/kg p.o. twice a week) was 101.1 mg. For the same molecule, the “Average Tumor Weight on Day 15” value (2500 mg/kg p.o. twice a week) was 196 mg, the “Average Tumor Weight on Day 18” value (2500 mg/kg p.o. twice a week) was 126 mg and the “Average Tumor Weight on Day 23” value (2500 mg/kg p.o. twice a week) was 256 mg. The “Average Tumor Weight on Day 26” value (2500 mg/kg p.o. twice a week) was 171.5 mg, the “Average Tumor Weight on Day 1” value (1500 m/kg p.o. twice a week) was 76.6 mg and the “Average Tumor Weight on Day 5” value (1500 m/kg p.o. twice a week) was 76.1 mg. The “Average Tumor Weight on Day 8” value (1500 m/kg p.o. twice a week) was 94.4 mg, the “Average Tumor Weight on Day 11” value (1500 m/kg p.o. twice a week) was 130 mg and the “Average Tumor Weight on Day 15” value (1500 m/kg p.o. twice a week) was 166.3 mg. For the same molecule, the “Average Tumor Weight on Day 18” value (1500 m/kg p.o. twice a week) was 189.3 mg, the “Average Tumor Weight on Day 23” value (1500 m/kg p.o. twice a week) was 242.3 mg and the “Average Tumor Weight on Day 26” value (1500 m/kg p.o. twice a week) was 264 mg. For the same molecule, the “Average Tumor Weight on Day 30” value (1500 m/kg p.o. twice a week) was 405 mg.
